This is an account of results in patent US20250186437A1, “CARBOLINE COMPOUNDS AND USE THEREOF” (PTC Therapeutics, Inc., priority 2021, published 2025).

This assay relates to MOLM-13 cells. Put plainly: MOLM-13 Cell Proliferation Assay (indicator of DHODH inhibition). The assay is classed as cell-based. The following applies: Homo sapiens, 72 Hours of culture, CellTiter-Glo, no uridine. The gist of the method: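 Proliferation readout via CellTiter-Glo luminescence after 72 h compound treatment (37 °C, 5% CO2, 0.5% DMSO) of MOLM-13 cells seeded at 10^4 per well in RPMI 1640/10% FBS, used as a DHODH-inhibition indicator since these cells rely on de novo pyrimidine synthesis.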

Molecules are shown by their SMILES.

As a reminder, the IC50 is the concentration at which inhibition is half-maximal. The low end stands for inhibition by little substance, the high end for a need for much substance. `COc1ccc2[nH]c3c(c2c1)CCN(c1nc(C(F)(F)F)cc(C(F)(F)F)n1)[C@H]3c1ccc(C)c(F)c1F` [Compound 528, (1S)-2-[4,6-bis(trifluoromethyl)pyrimidin-2-yl]-1-(2,3-difluoro-4-methylphenyl)-6-methoxy-2,3,4,9-tetrahydro-1H-pyrido[3,4-b]indole] came in with an IC50 of 1.2 nM.

The compound `Cc1nc(C)nc(N2CCc3c([nH]c4c(O)cc(Cl)cc34)C2c2ccc(N3CCOCC3)nc2)n1` (centres unmarked) [Compound 339, 6-chloro-2-(4,6-dimethyl-1,3,5-triazin-2-yl)-1-[6-(morpholin-4-yl)pyridin-3-yl]-2,3,4,9-tetrahydro-1H-pyrido[3,4-b]indol-8-ol] registered an IC50 of 13.5 nM.

As for `Cc1ccc(C2c3[nH]c4ccc(Cl)c(F)c4c3CCN2c2ncc(Cl)cn2)c(F)c1F` (centres unmarked) [Compound 195, 6-chloro-2-(5-chloropyrimidin-2-yl)-1-(2,3-difluoro-4-methylphenyl)-5-fluoro-2,3,4,9-tetrahydro-1H-pyrido[3,4-b]indole], the IC50 turned out to be 1 nM.

`FC(F)(F)c1cc(C(F)(F)F)nc(N2CCc3c([nH]c4ccc(-n5nccn5)cc34)[C@@H]2c2cnc(N3CCOCC3)nc2)n1` [Compound 514, (1S)-2-[4,6-bis(trifluoromethyl)pyrimidin-2-yl]-1-[2-(morpholin-4-yl)pyrimidin-5-yl]-6-(2H-1,2,3-triazol-2-yl)-2,3,4,9-tetrahydro-1H-pyrido[3,4-b]indole] came in with an IC50 of 0.6 nM.

The compound `Cc1ccc(C2c3[nH]c4cc(F)c(Cl)cc4c3CCN2c2nc(C)c(F)c(C)n2)c(F)c1F` (centres unmarked) [Compound 143, 6-chloro-1-(2,3-difluoro-4-methylphenyl)-7-fluoro-2-(5-fluoro-4,6-dimethylpyrimidin-2-yl)-2,3,4,9-tetrahydro-1H-pyrido[3,4-b]indole] displayed an IC50 of 1.2 nM.

In the case of `Cc1nc(C)nc(N2CCc3c([nH]c4c(N)cc(Cl)cc34)C2c2cnc(N3CCOCC3)nc2)n1` (centres unmarked) [Compound 309, 6-chloro-2-(4,6-dimethyl-1,3,5-triazin-2-yl)-1-[2-(morpholin-4-yl)pyrimidin-5-yl]-2,3,4,9-tetrahydro-1H-pyrido[3,4-b]indol-8-amine], the half-inhibitory concentration (IC50) was 5.6 nM.

The compound `Cc1nc(C)nc(N2CCc3c([nH]c4ccc(Cl)c([N+](=O)[O-])c34)C2c2cnc(N3CCOCC3)nc2)n1` (centres unmarked) [Compound 325, 4-[5-[6-chloro-2-(4,6-dimethyl-1,3,5-triazin-2-yl)-5-nitro-1,3,4,9-tetrahydropyrido[3,4-b]indol-1-yl]pyrimidin-2-yl]morpholine] displayed an IC50 of 167 nM.

`N#Cc1ccnc(N2CCc3c([nH]c4cc(F)c(Cl)cc34)C2c2ccc(F)cc2)n1` (centres unmarked) [Compound 25, 2-[6-chloro-7-fluoro-1-(4-fluorophenyl)-1,3,4,9-tetrahydro-2H-pyrido[3,4-b]indol-2-yl]pyrimidine-4-carbonitrile]: the IC50 turned out to be 51.4 nM.

`Cc1nc(C)nc(N2CCc3c([nH]c4ccc(Cl)cc34)C2c2ccc(F)cc2F)n1` (centres unmarked) [Compound 451, 6-chloro-1-(2,4-difluorophenyl)-2-(4,6-dimethyl-1,3,5-triazin-2-yl)-2,3,4,9-tetrahydro-1H-pyrido[3,4-b]indole]: the IC50 is 8 nM.

Regarding `CN(C)c1ncc(C2c3[nH]c4cc(F)c(Cl)cc4c3CCN2c2ncc(Cl)cn2)cn1` (centres unmarked) [Compound 102, 5-[6-chloro-2-(5-chloropyrimidin-2-yl)-7-fluoro-2,3,4,9-tetrahydro-1H-pyrido[3,4-b]indol-1-yl]-N,N-dimethylpyrimidin-2-amine], it took 19.6 nM to reach half-maximal inhibition (IC50).

The compound `Cc1cc(C)nc(N2CCc3c([nH]c4ccc(Cl)c(F)c34)C2c2ccc(C)c(F)c2F)n1` (centres unmarked) [Compound 205, 6-chloro-1-(2,3-difluoro-4-methylphenyl)-2-(4,6-dimethylpyrimidin-2-yl)-5-fluoro-2,3,4,9-tetrahydro-1H-pyrido[3,4-b]indole] had an IC50 of 0.7 nM.

Compound `CS(=O)(=O)c1ccc(C2c3[nH]c4cc(F)c(Cl)cc4c3CCN2c2ncc(F)cn2)cc1` (centres unmarked) [Compound 107, 6-chloro-7-fluoro-2-(5-fluoropyrimidin-2-yl)-1-[4-(methanesulfonyl)phenyl]-2,3,4,9-tetrahydro-1H-pyrido[3,4-b]indole] returned an IC50 of 44.6 nM.

As for `Fc1cnc(N2CCc3c([nH]c4ccc(Cl)c(F)c34)C2c2cnc(N3CCOCC3)nc2)nc1` (centres unmarked) [Compound 211, 6-chloro-5-fluoro-2-(5-fluoropyrimidin-2-yl)-1-[2-(morpholin-4-yl)pyrimidin-5-yl]-2,3,4,9-tetrahydro-1H-pyrido[3,4-b]indole], the midpoint of inhibition, the IC50, lay at 4.9 nM.

Consider `Cc1ccc([C@@H]2c3[nH]c4ccc(Cl)cc4c3CCN2c2nccc(C#N)n2)c(F)c1F` [Compound 176, 2-[(1R)-6-chloro-1-(2,3-difluoro-4-methylphenyl)-1,3,4,9-tetrahydro-2H-pyrido[3,4-b]indol-2-yl]pyrimidine-4-carbonitrile], for which 58.1 nM corresponded to half-maximal inhibition (IC50).

`Cc1nc(N2CCc3c([nH]c4ccc(Cl)cc34)[C@@H]2c2ccc(N3CCOCC3)nc2)nc(C#N)c1F` [Compound 424, 2-{(1S)-6-chloro-1-[6-(morpholin-4-yl)pyridin-3-yl]-1,3,4,9-tetrahydro-2H-pyrido[3,4-b]indol-2-yl}-5-fluoro-6-methylpyrimidine-4-carbonitrile] had an IC50 of 2 nM.

Turning to `NS(=O)(=O)c1ccc(C2c3[nH]c4ccc(Cl)c(F)c4c3CCN2c2nccc(C(F)(F)F)n2)cc1` (centres unmarked) [Compound 150, 4-{6-chloro-5-fluoro-2-[4-(trifluoromethyl)pyrimidin-2-yl]-2,3,4,9-tetrahydro-1H-pyrido[3,4-b]indol-1-yl}benzene-1-sulfonamide], the IC50 stood at 8.9 nM.

On to `Cc1ccc(C2c3[nH]c4cc(F)c(Cl)cc4c3CCN2c2nc(Cl)cc(N(C)C)n2)cc1` (centres unmarked) [Cpd 17, 6-chloro-2-[6-chloro-7-fluoro-1-(4-methylphenyl)-1,3,4,9-tetrahydro-2H-pyrido[3,4-b]indol-2-yl]-N,N-dimethylpyrimidin-4-amine], for which the IC50 was determined as 18.4 nM.

Regarding `FC(F)(F)c1ccnc(N2CCc3c([nH]c4ccc(Cl)cc34)C2c2ccc(-n3ccnc3)cc2)n1` (centres unmarked) [Compound 260, 6-chloro-1-[4-(1H-imidazol-1-yl)phenyl]-2-[4-(trifluoromethyl)pyrimidin-2-yl]-2,3,4,9-tetrahydro-1H-pyrido[3,4-b]indole], it took 6.3 nM to reach half-maximal inhibition (IC50).

Take `Cc1cc(Cl)nc(N2CCc3c([nH]c4cc(F)c(Cl)cc34)C2c2ccc(F)cc2)n1` (centres unmarked) [Compound 46, 6-chloro-2-(4-chloro-6-methylpyrimidin-2-yl)-7-fluoro-1-(4-fluorophenyl)-2,3,4,9-tetrahydro-1H-pyrido[3,4-b]indole]: the IC50 was 6.5 nM.

`Cc1ccc([C@H]2c3[nH]c4ccc(Cl)cc4c3CCN2c2nc(C#N)cc(C(F)(F)F)n2)c(F)c1F` [Compound 416, 2-[(1S)-6-chloro-1-(2,3-difluoro-4-methylphenyl)-1,3,4,9-tetrahydro-2H-pyrido[3,4-b]indol-2-yl]-6-(trifluoromethyl)pyrimidine-4-carbonitrile]: 2.7 nM corresponded to half-maximal inhibition (IC50).

In the case of `Cc1ccc(C2c3[nH]c4ccc(Cl)cc4c3CCN2c2ncc(F)c(C)n2)c(F)c1F` (centres unmarked) [Compound 235, 6-chloro-1-(2,3-difluoro-4-methylphenyl)-2-(5-fluoro-4-methylpyrimidin-2-yl)-2,3,4,9-tetrahydro-1H-pyrido[3,4-b]indole], the IC50 was found to be 1.5 nM.

For `Cc1ccc(C2c3[nH]c4cc(F)c(Cl)cc4c3CCN2c2nccc(C#N)n2)c(F)c1F` (centres unmarked) [Compound 141, 2-[6-chloro-1-(2,3-difluoro-4-methylphenyl)-7-fluoro-1,3,4,9-tetrahydro-2H-pyrido[3,4-b]indol-2-yl]pyrimidine-4-carbonitrile], half-maximal inhibition (IC50) was put at 8.7 nM.

In the case of `FC(F)(F)c1ccnc(N2CCc3c([nH]c4ccc(Cl)cc34)C2c2cnc(N3CC4CC3CO4)nc2)n1` (centres unmarked) [Compound 335, 6-chloro-1-[2-(2-oxa-5-azabicyclo[2.2.1]heptan-5-yl)pyrimidin-5-yl]-2-[4-(trifluoromethyl)pyrimidin-2-yl]-2,3,4,9-tetrahydro-1H-pyrido[3,4-b]indole], the IC50 came out at 7.6 nM.

Compound `Cc1cc(C(F)(F)F)nc(N2CCc3c([nH]c4ccc(Cl)c(F)c34)C2c2ccc(C)c(F)c2F)n1` (centres unmarked) [Compound 206, 6-chloro-1-(2,3-difluoro-4-methylphenyl)-5-fluoro-2-[4-methyl-6-(trifluoromethyl)pyrimidin-2-yl]-2,3,4,9-tetrahydro-1H-pyrido[3,4-b]indole] gave an IC50 of 0.4 nM.

In turn, `COC(=O)c1ccnc(N2CCc3c([nH]c4ccc(Cl)c(F)c34)C2c2ccc(Cl)cc2)n1` (centres unmarked) [Compound 87, methyl 2-[6-chloro-1-(4-chlorophenyl)-5-fluoro-1,3,4,9-tetrahydro-2H-pyrido[3,4-b]indol-2-yl]pyrimidine-4-carboxylate] returned an IC50 of 7.9 nM.

Compound `Cc1ccc(C2c3[nH]c4ccc(Cl)cc4c3CCN2c2nc(C)nc(C(F)(F)F)n2)cc1` (centres unmarked) [Compound 437, 6-chloro-1-(4-methylphenyl)-2-[4-methyl-6-(trifluoromethyl)-1,3,5-triazin-2-yl]-2,3,4,9-tetrahydro-1H-pyrido[3,4-b]indole] registered an IC50 of 1.8 nM.

Turning to `N#Cc1nc(N2CCc3c([nH]c4ccc(Cl)cc34)[C@@H]2c2ccc(N3CCOCC3)nc2)ncc1F` [Compound 400, 2-{(1S)-6-chloro-1-[6-(morpholin-4-yl)pyridin-3-yl]-1,3,4,9-tetrahydro-2H-pyrido[3,4-b]indol-2-yl}-5-fluoropyrimidine-4-carbonitrile], it took 2.3 nM to reach half-maximal inhibition (IC50).

With `Cc1ccc(C2c3[nH]c4ccc(Cl)cc4c3CCN2c2nc(C)cc(C#N)n2)cc1` (centres unmarked) [Compound 379, 2-[6-chloro-1-(4-methylphenyl)-1,3,4,9-tetrahydro-2H-pyrido[3,4-b]indol-2-yl]-6-methylpyrimidine-4-carbonitrile], the concentration for half-maximal inhibition (IC50) was 4.5 nM.

For `Cc1ccc(C2c3[nH]c4ccc(Cl)cc4c3CCN2c2nccc(C(F)(F)F)n2)c(O)c1` (centres unmarked) [Compound 257, 2-{6-chloro-2-[4-(trifluoromethyl)pyrimidin-2-yl]-2,3,4,9-tetrahydro-1H-pyrido[3,4-b]indol-1-yl}-5-methylphenol], the IC50 was found to be 1.3 nM.
